Reference: US5230998A, “Method for the prescreening of drugs targeted to the V3 hypervariable loop of the HIV-1 envelope glycoprotein gp 120” (priority 1991, dated 1993)
≈ marks a conversion by molar mass, not a printed value.

What was measured:
[1] = molecular target: T1, HIV-1 gp120 V3 hypervariable loop (Human immunodeficiency virus type 1 group M subtype B, UniProt P03375); assay: biochemical; type: binding; conditions: for Inhibitory activity: Table 1, reaction between HIV-1 gp120 and anti-V3 loop antibodies; for inhibition at 50 µg/mL: read-out: percentage of inhibition; as to Inhibitory activity: key: Chemicals with inhibitory activity are indicated by +
T1 construct: Polystyrene plates coated with recombinant gp120 and gp160, respectively; purchased American Bio-Technologies, Inc., Cambridge, Mass; host or cells: baculovirus expression system
Method: Wells of 96 well polystyrene plates (Immulon 2, Dynatech Laboratories, Inc., Chantilly, Va.) were coated with synthetic peptides (200 μl; 20μg/ml in 0.1 M Tris-HCl, pH 8.8) overnight at 20° C. The peptides were from the sequence of HIV-1, clone BH 10 envelope glycoproteins gp120 and gp41 (Neurath, A. R., Strick, N., and Lee, E. Y. S. (1990), "B-cell Epitope Mapping of Human Immunodeficiency virus (HIV-1) Envelope Glycoprotein with Long (19 to 36-residue) Synthetic Peptides", J. Gen. Virol., 71., 85-95) and from V3 hypervariable loops of 21 distinct HIV-1 isolates (clones) Neurath, A. R., and Strick, N., (1990), "Confronting the Hypervariability of an Immunodominant Epitope Eliciting Virus Neutralizing Antibodies from the Envelope Glycoprotein of the Human Immunodeficiency Virus Type 1 (HIV-1)", Molec. Immunol., 27, 539-549. The latter peptides corresponded to full-length V3 loops generated by disulfide bonds between N- and C- terminal cysteine residues. After washing with 0.14 M NaCl, 0.01 M Tris, 0.02% NaN3 (TS), the wells were postcoated with a mixture of bovine serum albumin (BSA) and gelatine (10 and 2.5 mg/ml, respectively) in TS. BSA was omitted from the postcoating solution for RIA tests in which antibodies to ATA were used. Polystyrene plates coated with recombinant gp120 and gp160, respectively, (500 ng/well; from American Bio-Technologies, Inc., Cambridge, Mass. and MicroGeneSys, Inc., West Haven, Conn., respectively) were also used for RIA and ELISA tests.
To define sites on gp120/gp41 reacting with ATA, the inhibitory effect of this compound was studied by RIA tests using gp120- and gp160-coated wells, respectively, and antisera (final dilutions 1:150) against synthetic peptides from the entire sequence of gp120/gp41 of HIV-1 BH 10. The preparation and biological properties of these antisera were described elsewhere (Neurath et al., (1990), J. Gen. Virol., 71, 85-95). Each of the antisera was diluted in a mixture of fetal bovine serum and goat serum (9:1) containing 0.1% Tween 20, adjusted to pH 8. ATA (final concentration 50 μg/ml) was added in one set of assays, but was omitted from a parallel set. After incubation overnight at 25° C., the plates were washed with TS. Attached rabbit IgG was detected using ^125 I-labeled anti-rabbit IgG, as described before (Neurath et al., 1990, J. Gen. Virol., 71, 85-95). Similarly, the inhibitory effect of ATA on the reaction of peptides derived from gp120/gp41 and of peptides derived from V3 hypervariable loops from gp120 of distinct HIV-1 isolates with the respective homologous anti-peptide antisera was studied. In the latter case, antisera were diluted 1:1,000 for the assays.
The inhibitory effect of ATA and of other compounds on the reaction between antibodies with predetermined specificity and gp120 (or synthetic peptides derived from it) was determined from the formula: [formula] An analogous formula was used to calculate the percentage of inhibition from optical density readings resulting from ELISA tests.
Chemicals other than ATA were screened for inhibitory activity essentially as described above. […] Chemicals with inhibitory activity established by the respective immunoassays were screened further for antiviral activity.
Commercially available ATA is a mixture of monomers and polymers of distinct molecular masses (Gonzalez et al., (1979) Biochem. Biophys. Acta, 562, 534-545); Cushman et al., (1991), J. Chem., 34, 329-337). The monomers [molecular mass (M.W.)=422.4 daltons] were separated from the polymers. ATA (20 mg/ml in the form of free acid neutralized with 0.4 M NaOH) was dialyzed against H2 O in a dialysis membrane with a molecular mass cutoff of 500 daltons.

HIV-1 = assay: Antiviral activity: inhibition of P24 production in MT-2 cells; type: cell-based, HIV-1 IIIB; design: inhibition: dose or concentration left out as unconfirmed; conditions: Human immunodeficiency virus 1, MT2, Table 1; for EC50: read-out: EC50 (concentration at which the production of P24 was reduced to 50% of that detected in control cultures); for inhibition: read-out: percentage of inhibition of P24 nucleoprotein production
Method: All chemicals were tested at serial two-fold dilutions (1.25-80 μg/ml, prepared from a stock solution containing 10 mg/ml in dimethylsulfoxide). The chemicals were obtained from Aldrich, Milwaukee, Wis. or were synthesized. Their inhibitory activity was determined by two distinct methods, based on inhibition of synthesis of core protein P24 and on protection by the chemicals of cells against the cytopathic effect of HIV-1 (colorimetric method) respectively.
The chemicals were serially diluted in RPMI 1640 medium without phenol red (GIBCO, Grand Island, N.Y.) containing 10% fetal calf serum (FCS). Aliquots of the diluted solutions were added to wells of 96 well plates and mixed with an equal volume of diluted HIV-1 [multiplicity of infection (MOI) =0.0045]. After incubation for 1 hour at 37° C., 25 μl of polybrene (1 μg/ml) treated MT-2 cells (Harada, S., Koyanagi, Y., Yamamoto, N., (1985), "Infection of HTLV-III/LAV in HTLV-I-carrying Cells MT-2 and MT-4 and Application in a Plaque Assay", Science, 229, 563-566), (5,000 cells/well) were added. The mixture was incubated for 1 hour at 37° C. and the volume was adjusted with RPMI 1640 medium with 10% FCS to 200 μl. On the fourth day after incubation at 37° C., 100 μl of culture supernatants were collected from each well and equal volumes of fresh medium were added to the wells. The supernatants were assayed for P24 using a kit from Coulter Immunology (Hialeah, Fla.). On the sixth day, an indicator XTT tetrazolium dye (1 mg/ml; 50 μl/well; PolySciences, Inc., Warrington, Penna.) was added to the cells. After 4 hours, intracellular formazan was determined colorimetrically at 450 nm.
^c Chemicals with inhibitory activity in ELISA (RIA) tests were teste
^d EC50 = concentration at which the production of P24 was […]

Row | SMILES | Inhibitory activity [1] | inhibition at 50 µg/mL [1] | EC50 (HIV-1) | inhibition (HIV-1)
1 | O=C(O)CC(c1ccccc1)(c1ccccc1)c1ccccc1 [compound 2] | + | 27% |  | 
2 | c1ccc(CNc2ccccc2)cc1 [compound 42] | + | 28.8% |  | 
3 | Nc1ccccc1-c1ccccc1 [compound 50] | + | 70.5% |  | 
4 | Nc1ccc2c(c1)Cc1cc(Br)ccc1-2 [compound 63] | + | 37.1% | 68 µg/mL (≈ 261 µM) | 19%
5 | Nc1ccc2c3c(cccc13)-c1ccccc1-2 [compound 65] | + | 27.4% | 3 µg/mL (≈ 13.8 µM) | 100%
6 | c1cnc2c(c1)CCCCCCCCCC2 [compound 67] | + | 36.8% | 37 µg/mL (≈ 170 µM) | 53%
7 | O=Cc1ccc(-c2ccccc2)cc1 [compound 93] | + | 21% | > 80 µg/mL | 32%
8 | O=C1OC(=O)C2C3c4ccccc4C(c4ccccc43)C12 (stereo not drawn) [compound 106] | + | 77.5% | 18 µg/mL (≈ 65.1 µM) | 82%
9 | O=C(O)CNC(c1ccccc1)(c1ccccc1)c1ccccc1 [compound 108] | + | 33.5% |  | 
10 | CC(C)C[C@H](NC(=O)[C@H](C)NC(=O)[C@H](CC(C)C)NC(c1ccccc1)(c1ccccc1)c1ccccc1)C(=O)O [compound 114] | + | 62.1% | > 80 µg/mL | 14%
11 | O=C(O)C1=CC(=C(c2ccc(O)c(C(=O)O)c2)c2ccc(O)c(C(=O)O)c2)C=CC1=O [compound 122] | + |  | 12 µg/mL (≈ 28.4 µM) | 83%
12 | O=c1cc2oc3cc(O)c(O)cc3c(-c3ccccc3)c-2cc1O [compound 128] | + | 58.6% | 27 µg/mL (≈ 84.3 µM) | 85%
13 | O=C(O)COc1cc2oc3cc(=O)c(OCC(=O)O)cc-3c(-c3ccccc3)c2cc1OCC(=O)O [compound 129] | + | 56.8% | 15 µg/mL (≈ 30.3 µM) | 88%
14 | CC1=C(C(=O)O)C(=O)C(C(C)(C)C)=CC1=C(c1cc(C(C)(C)C)c(O)c(C(=O)O)c1C)c1cc(C(C)(C)C)c(O)c(C(=O)O)c1C [compound 130] | + | 38.6% | 80 µg/mL (≈ 126 µM) | 38%
15 | O=C(O)C1=CC(I)=CC(=C(c2cc(I)cc(C(=O)O)c2O)c2cc(I)cc(C(=O)O)c2O)C1=O [compound 131] | + | 74.8% | 71 µg/mL (≈ 88.7 µM) | 41%
16 | CC(=O)C1=CC(=C(c2ccc(O)c(C(C)=O)c2)c2ccc(O)c(C(C)=O)c2)C=CC1=O [compound 140] | + | 69.4% |  | 
17 | CC1=C(CCC(=O)O)c2cc3[nH]c(cc4nc(cc5[nH]c(cc1n2)c(C(O)CO)c5C)C(C(O)CO)=C4C)c(C)c3CCC(=O)O (stereo not drawn) [compound 150] | + | 43.3% | 38.2 µg/mL (≈ 60.6 µM) | 99%
18 | C=CC1=C(C)c2cc3[nH]c(cc4nc(cc5[nH]c(cc1n2)c(C)c5CO)C(C)=C4CCC(=O)O)c(CCC(=O)O)c3C [compound 152] | + | 82.6% | 3 µg/mL (≈ 5.29 µM) | 100%
19 | C=CC1=C(C)c2cc3[nH]c(cc4nc(cc5[nH]c(cc1n2)c(C)c5C=C)C(C)=C4CCC(=O)O)c(CCC(=O)O)c3C [compound 158] | + | 55.8% | 1 µg/mL (≈ 1.78 µM) | 100%
20 | O=C(O)c1ccc(-c2c3nc(c(-c4ccc(C(=O)O)cc4)c4ccc([nH]4)c(-c4ccc(C(=O)O)cc4)c4nc(c(-c5ccc(C(=O)O)cc5)c5ccc2[nH]5)C=C4)C=C3)cc1 [compound 160] | + | 84.3% | 1.3 µg/mL (≈ 1.64 µM) | 100%
21 | C1=Cc2nc1c(-c1ccncc1)c1ccc([nH]1)c(-c1ccncc1)c1nc(c(-c3ccncc3)c3ccc([nH]3)c2-c2ccncc2)C=C1 [compound 161] | + | 66.4% | > 80 µg/mL | 0%
22 | O=C(O)CCC1=C(CC(=O)O)c2cc3[nH]c(cc4nc(cc5[nH]c(cc1n2)c(CC(=O)O)c5CCC(=O)O)C(CC(=O)O)=C4CCC(=O)O)c(CC(=O)O)c3CCC(=O)O [compound 163] | + | 41.1% | 9.8 µg/mL (≈ 11.8 µM) | 99%
23 | O=C(O)CCC1=C(CC(=O)O)c2cc3[nH]c(cc4nc(cc5[nH]c(cc1n2)c(CCC(=O)O)c5CC(=O)O)C(CC(=O)O)=C4CCC(=O)O)c(CC(=O)O)c3CCC(=O)O [compound 164] | + | 45% | 2.3 µg/mL (≈ 2.77 µM) | 100%
